The values below come from patent publication US20240216369A1, “THE USE OF A SPLICING MODULATOR FOR A TREATMENT SLOWING PROGRESSION OF HUNTINGTON'S DISEASE” (Novartis AG, priority 2019, published 2024).

Experiment [1] relates to mHTT. Put plainly: Mutant and total HTT multiplex HTRF assay in Q48 HTT human embryonic stem cell line: mHTT. Type of experiment: cell-based. To be noted: Q48 HTT hESC, 48 hours. The procedure, abridged: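 Q48 HTT hESCs from HD donors were treated with compound for 48 h at 37 °C after 24 h adherence, then lysed. Lysates were read by multiplex HTRF with N-terminal donor, polyQ (MW1) and post-polyQ (MAB2166) antibodies for 4-6 h at RT. Donor/acceptor ratios give relative mHTT and tHTT; pIC50 reported.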
A general note: TR-FRET usually uses a lanthanide donor and a delayed reading to cut background.

Experiment [2] concerns mutant HTT protein. Put plainly: Mouse population PK/PD turnover model based on BacHD mouse. Format: in vivo. The following applies: for Imax: set to 1. From the text:
For the development of the PK/PD relationship, the concentration of mutant HTT protein in the brain of BacHD mice and its changes after branaplam administration were used as PD biomarker (Example 1a). To increase the data base, all concentrations of the mutant HTT protein were pooled. The correlation between branaplam concentrations in plasma and the mutant HTT protein concentrations in the brain were investigated by means of a turnover model (described below) considering the inhibition of the production of mutant HTT protein in the brain. Since mutant HTT protein was determined in brain cortex and brain striatum, the PK/PD correlations were executed for both brain parts separately. […] For the execution of the population PK/PD model, the PK parameters (presented in Table 6) from the previously described population PK model were fixed and the PD parameters were calculated. The Monolix software (Version 2018R1, Lixoft) and its turnover model described in the library (pkpd/oral1_2cpt_SigmoidindirectModelinhibitionKin_TlagkaCIV1QV2R0koutimaxIC50gamma) was used to determine the PD parameters in the mouse. The PD part of the model can be described by the following equation:
mutant HTT protein change over time=kin*(1−I max*max(Cc,0)^gamma/(max(Cc,0)^gamma+IC50^gamma))−kout*R • kin: synthesis rate of mutant HTT protein • kout: degradation rate of mutant HTT protein • Imax: maximum inhibition effect • IC50: half-maximum inhibitory concentration • gamma: sigmoidicity of the drug effect • max(Cc,0): branaplam plasma concentration • R: mutant HTT protein level at a given time with baseline R0 of 1 since only relative changes to the baseline were determined in the BacHD mouse model, Example 1a
It has to be noted, that the maximum inhibitory effect was set to 1 and the mutant HTT protein baseline, R0, was set to 1 since only relative changes to the baseline were determined in the BacHD mouse (Example 1a).

The subject of experiment [3] is mutant HTT protein. The experiment in a line: Human PK/PD model scaled from BacHD mouse, simulations in adult patients. To be noted: Scaled PD parameters (cortex). An excerpt: For the development of a PK/PD model in adults, the adult ACAT/PBPK model (Example 1c.1) was used to predict the concentration-time course of branaplam in plasma after oral branaplam administration. The PD parameters of the population PK/PD model in mouse were scaled for brain cortex and brain striatum from BacHD mouse to human according to following assumptions: • Mutant HTT baseline level in brain (R0) was kept equal to 1. • Drug's potency (IC50) was assumed to be the same in human as in BacHD mouse. The value was not corrected by the plasma protein binding since values in mouse and human were 0.741 and 0.8 in mouse and human, respectively. • Degradation rate or fractional turnover parameter of the mutant HTT protein synthesis (kout) was scaled from BacHD mouse to human considering an allometric scaling method based on the assumption that endogenous turnover of proteins, peptides and hormones can be scaled across different species and are related to energy turnover or metabolic rates (Gabrielsson J, Hjorth S, Quantitative Pharmacology: An Introduction to Integrative Pharmacokinetic-Pharmacodynamic Analysis. Swedish Pharmaceutical Press; 1 edition (May 7, 2012)). […]

Turning to `CC1(C)CC(Oc2ccc(-c3ccc(-c4cn[nH]c4)cc3O)nn2)CC(C)(C)N1` [Compound 18, 5-(1H-pyrazol-4-yl)-2-(6-((2,2,6,6-tetramethylpiperidin-4-yl)oxy)pyridazin-3-yl)phenol], the “Rating (based on mHTT potency)” value in experiment [1] is “**** (a pIC50 value between 7.0 and 7.5 is indicated by four stars (****))”. For the same molecule, the “mHTT pIC50” value in experiment [1] was determined as 7.2795. In addition, the “time of maximum decrease of mutant HTT protein in the brain” value in experiment [2] (BacHD mouse) is given as “about 72 h post dose”. The “IC50 (plasma concentration, inhibition of mutant HTT protein production)” value in experiment [2] (popPD parameters (cortex), BacHD mouse) stood at 0.174 mg/L; in experiment [2] (popPD parameters (striatum), BacHD mouse), 0.0682 mg/L. Moreover, the Imax in experiment [2] (popPD parameters (cortex)), in experiment [2] (popPD parameters (striatum)), in experiment [3] (first block) and in experiment [3] (second block) was 1 in each case.
